From patent publication US7709526B2, “Use of cyclolignans and new cyclolignans” (Biovitrum AB, priority 2001, dated 2010)

How the values were obtained:
SK-MEL-28 melanoma cells = test: Cell viability (XTT), SK-MEL-28; assay type: cell-based, human; details: Homo sapiens, 48 h
Experimental: Cell proliferation kit II (Roche Inc.) is based on calorimetric change of the yellow tetrazolium salt XTT in orange formazan dye by the respiratory chain of viable cells (Roehm, N W, et al., J Immunol Methods 142:257-265, 1991). Cells seeded at a concentration of 5000/well in 100 μl medium in a 96-well plate were treated with different drugs in the given concentration. After 24 or 48 h the cells were incubated, according to the manufacturer's protocol, with XTT labelling mixture. After 4 h the formazan dye is quantified using a scanning multiwell spectrophotometer with a 495-nm filter. The absorbance is directly correlated with number of viable cells. The standard absorbance curve was drawn by means of untreated cells seeded at a concentration of from 1000 to 10 000 cells/well with an increasing rate of 1000 cells/well. All standards and experiments were performed in triplicates.
5 different types of cell lines were seeded in 96-well plates (medium volume in a well was 100 μl), at a concentration of 10,000 cells/cm^2 in Minimal Essential Medium supplemented with fetal calf serum. When the cells had reached a concentration of 65,000 cells/cm^2, they were treated with different doses of podophyllotoxin and deoxypodophyllotoxin for 48 h. Cell viability was then assayed (see above). […]

microtubules = details: cell free systems; cited from earlier work

In the case of `COc1cc([C@@H]2c3cc4c(cc3[C@H](O)[C@H]3COC(=O)[C@H]23)OCO4)cc(OC)c1OC` [Podophyllotoxin, podophyllotoxin], the IC50 (SK-MEL-28 melanoma cells) is given as 50 nM and the effect on microtubules (microtubules) is given as “required μM concentrations”.
